Reference: paper PMC6630837 (Pharmaceuticals, 2019)
“Also recorded” adds a separate entry of the source. Where two headings read alike, the source gives them in different places.

Columns and labels:
[1] = LogD7.4 determination (octan-1-ol/phosphate buffer, LC-MS); assay type: physicochemical
Method: LogD7.4 determination. The in-silico prediction tool ALOGPS [4] was used to estimate the octanol-water partition coefficients (log P) of the compounds. […] For each category, two different ratios (volume of octan-1-ol to volume of buffer) were defined as experimental parameters (Table 2).
Equal amounts of phosphate buffer (0.1 M, pH 7.4) and octan-1-ol were mixed and shaken vigorously for 5 min to saturate the phases. The mixture was left until separation of the two phases, and the buffer was retrieved. Stock solutions of the test compounds were diluted with buffer to a concentration of 1 μM. For each compound, three determinations per octan-1-ol:buffer ratio were performed in different wells of a 96-well plate. The respective volumes of buffer-containing analyte (1 μM) were pipetted to the wells and covered by saturated octan-1-ol according to the chosen volume ratio. […] The aqueous phase was transferred to a 96-well plate for analysis by liquid chromatography-mass spectrometry (LCMS, see below).
Results are presented as the mean ± SD of three independent experiments.
LC-MS measurements. […] The system was controlled with the Agilent MassHunter Workstation Data Acquisition software (version B.01.04). The column used was an AtlantisR T3 C18 column (2.1 × 50 mm) with a 3 μm-particle size (Waters Corp., Milford, MA, USA). The mobile phase consisted of eluent A: 10 mM ammonium acetate, pH 5.0 in 95:5, H2O:MeCN; and eluent B: MeCN containing 0.1% formic acid. The flow rate was maintained at 0.6 mL/min. […] MS parameters such as fragmentor voltage, collision energy, and polarity were optimized individually for each drug, and the molecular ion was followed for each compound in the multiple reaction monitoring mode. The concentrations of the analytes were quantified by the Agilent Mass Hunter Quantitative Analysis software (version B.01.04).

[2] = system: SH-SY5Y human neuroblastoma cells; assay: Neuroprotection against H2O2-induced toxicity, MTT cell viability assay; assay type: cell-based; details: 50 μM compound, 100 μM H2O2, 24 h, 37 °C
Source text: Neuroprotective activity assays against H2O2-induced toxicity. On the basis of previously described protocols, the flavones and analogues herein synthesized were screened for their neuroprotective effects against H2O2-induced oxidative stress and neuronal damage in SH-SY5Y human neuroblastoma cells by means of a thiazolyl blue tetrazolium bromide (MTT) reduction-based cell viability assay.
Neuroprotective assays in human neuroblastoma (SH-SY5Y) cells. […] Differences were considered significant when P < 0.05.

[3] = system: SH-SY5Y neuroblastoma cells; assay: Cytotoxic activity of compounds alone, MTT cell viability assay; details: 24 h
Method: Neuroprotective assays in human neuroblastoma (SH-SY5Y) cells. SH-SY5Y cells were grown in Dulbecco’s Modified Eagle Medium (DMEM, Gibco, Life Technologies) supplemented with 10% fetal bovine serum (FBS, Biochrom GmbH) and 1% Penicillin-Streptomycin (Gibco, Life Technologies) in a humidified incubator at 37 °C, 5% CO2. For the neuroprotective activity assay, undifferentiated SGSY-5Y cells were plated onto 96-well flat-bottomed microtiter plates at a density of 1 × 10^4 cells/well in DMEM supplemented with 2% FBS and preincubated for 24 h at 37 °C, 5% CO2. Compounds (stored as 10 mM solutions in DMSO at −20 °C) were then added to achieve a final concentration of 50 μM and, after 30 min, cells were incubated in the presence or absence of 20 μM Aβ protein fragment 1-42 (Sigma-Aldrich, dissolved in DMSO and stored in 2 mM aliquots at −20 °C) or 100 μM of H2O2 (Sigma-Aldrich, dissolved to 10 mM in 0.9% NaCl aqueous solution immediately prior to the assay) overnight at 37 °C, 5% CO2. […] The following morning, 20 μL of a 5 mg/mL solution of 3-(4,5-dimethylthiazol-2-yl)-2,5-diphenyltetrazolium bromide (MTT, Sigma-Aldrich) in PBS (Gibco, Life Technologies) was added to each well and the plates were further incubated for 4 h at 37 °C, followed by the addition of DMSO (200 μL) to each well in order to dissolve the resulting formazan crystals. After 2 h incubating at 37 °C, the optical density (OD) at 540 nm (with a 620 nm reference filter) was measured in an Amersham Biosciences Biotrak II Plate Reader. The percentage of MTT reduction was determined according to Equation (1). […] Differences between experimental conditions were compared for statistical significance by one-way ANOVA followed by a Tukey’s post-test, an analysis carried out using GraphPad Prism Software (LA Jolla, CA, USA). Differences were considered significant when P < 0.05. In order to exclude direct MTT reduction, compounds were also tested in (a) the absence of cells and (b) in the absence of both cells and culture medium, using the same experimental conditions described above. (2) MTT Reduction (% of Control)=[ODsample−ODmedium/ODcell control−ODmedium] × 100 […]
Tabl e S2. Cytotoxic activity of each compound assessed in SH-SY5Y neuroblastoma cells via an MTT cell viability assay.a Comp ound Nr. MTT reduction (% control) p-va l u e vs . untreated cell control (unpai red t-t es t) […]
a Cells were incubated for 24 h at 37 °C, in the presence (50 μM) or absence of each compound.

[4] = target: acetylcholinesterase (AChE) (Electrophorus electricus, UniProt O42275); assay: Acetylcholinesterase inhibition, Ellman's colorimetric assay; assay type: biochemical; details: 100 µM compound; for inhibition at 100 µM: read-out: AChE inhibitory efficacy (percentage of inhibition)
Method: For cholinesterase inhibition tests (acetylcholinesterase (AChE, electrophorus
was kept within 1.25% cuvette concentration.
AChE and at 18.2 µM concentration for BuChE. […]

[5] = target: T1, butyrylcholinesterase (BuChE) (Equus caballus, UniProt P81908); assay: biochemical; details: for inhibition at 100 µM: read-out: BuChE inhibitory efficacy (percentage of inhibition)
T1 construct: (BuChE, equine serum); from tissue; host or cells: equine serum
Method: Experimental procedures for cholinesterase inhibition a s sa y s. For cholinesterase inhibition tests (acetylcholinesterase (AChE, electrophorus
el ec t r ic u s) a n d b ut yr ylcholinesterase (BuChE, equine serum), the Ellman’s cholorimetric assay1 was followed, with minor modifications. DMSO
was kept within 1.25% cuvette concentration. The chromogenic agent DTNB [5,5’-dithiobis(2-nitrobenzoic acid)] was fixed at 0.975 mM
con centration; 0. 1 M phosphate buffer (pH 8. 0) was employed, T = 25 °C, and the reaction was monitored for 125 s. […]
of inhibition, the substrate concentration (acetylthiocholine iodide for AChE; S- butyr ylthiocholine iodide for BuChE) was fixed at 29 µM for
AChE and at 18.2 µM concentration for BuChE.
Lineweaver-Burk plot (or double reciprocal plot, 1/V vs . 1/ [S ]) wa s u se d for estimating both, the mode of inhibition and the inhibition constants […]
Competitive inhibition (inhibitor only bonds the free enzyme):
KKiiii = [II ]KKMM iiaaaa
M i xe d inhibition (inhibitor binds both, the free and the complexed enzyme) :
Uncompetitive (the inhibitors only binds the complexed enzyme):
N on -competitive (inhibitor binds both the free enzyme and the complexed enzyme with equal affinity) :
Table S3. […]
of the synthesized flavone analogues at 100 µ M.
C omp ou n d N o. AChE B uChE

[6] = octan-1-ol/phosphate buffer, pH 7.4, octan-1-ol/phosphate buffer pH 7.4, 25 °C, read-out: Log D7.4 (partition coefficient at pH 7.4)
[7] = 50 μM compound alone, 37 °C, 0.5% DMSO, SH-SY5Y
[8] = octan-1-ol/phosphate buffer pH 7.4, 25 °C

Sequence of acetylcholinesterase (AChE) (O42275 24-633): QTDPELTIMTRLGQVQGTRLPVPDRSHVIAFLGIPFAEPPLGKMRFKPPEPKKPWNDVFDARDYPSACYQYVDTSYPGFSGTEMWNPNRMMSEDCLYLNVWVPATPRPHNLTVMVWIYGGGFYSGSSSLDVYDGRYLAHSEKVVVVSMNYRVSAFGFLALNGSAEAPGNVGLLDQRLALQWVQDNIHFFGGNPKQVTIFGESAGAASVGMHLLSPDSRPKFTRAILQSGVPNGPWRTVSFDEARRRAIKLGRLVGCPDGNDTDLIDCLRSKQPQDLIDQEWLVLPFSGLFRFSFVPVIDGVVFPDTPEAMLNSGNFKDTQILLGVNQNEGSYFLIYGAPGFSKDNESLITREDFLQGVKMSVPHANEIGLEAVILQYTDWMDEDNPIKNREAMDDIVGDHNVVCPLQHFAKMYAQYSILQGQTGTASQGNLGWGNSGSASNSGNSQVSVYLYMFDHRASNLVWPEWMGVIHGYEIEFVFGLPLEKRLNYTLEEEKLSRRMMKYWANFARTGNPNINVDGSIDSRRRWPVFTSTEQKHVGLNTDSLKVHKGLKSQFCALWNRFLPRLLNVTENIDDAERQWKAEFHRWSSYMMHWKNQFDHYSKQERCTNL
T1 sequence (P81908 whole entry): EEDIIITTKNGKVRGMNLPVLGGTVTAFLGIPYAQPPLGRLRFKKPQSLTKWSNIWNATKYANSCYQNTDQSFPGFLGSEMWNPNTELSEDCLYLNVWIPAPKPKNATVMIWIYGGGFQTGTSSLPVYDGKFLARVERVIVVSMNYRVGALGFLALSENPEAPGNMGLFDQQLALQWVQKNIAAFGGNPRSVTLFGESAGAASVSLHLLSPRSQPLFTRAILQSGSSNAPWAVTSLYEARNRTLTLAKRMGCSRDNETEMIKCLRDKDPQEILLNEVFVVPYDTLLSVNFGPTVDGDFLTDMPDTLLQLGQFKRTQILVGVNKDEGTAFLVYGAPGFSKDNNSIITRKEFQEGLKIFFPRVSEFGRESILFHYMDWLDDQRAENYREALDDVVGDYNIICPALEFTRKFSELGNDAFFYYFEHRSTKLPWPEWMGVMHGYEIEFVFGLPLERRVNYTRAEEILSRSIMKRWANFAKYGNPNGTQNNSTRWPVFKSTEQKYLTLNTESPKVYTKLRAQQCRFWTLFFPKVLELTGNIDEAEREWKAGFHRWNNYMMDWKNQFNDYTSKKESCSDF

O=c1cc(C2CC2)oc2cc(O)cc(O)c12 [Compound 4, 2-Cyclopropyl-5,7-dihydroxy-4H-chromen-4-one]
logD [1, 6]: 2.9 ± 0.1
Neuroprotective effect against H2O2-induced toxicity (MTT cell viability) [2]: the increase was not significant
MTT reduction (% control) [3, 7]: 140.7 ± 12.0%
inhibition at 100 µM [4]: 24%
inhibition at 100 µM [5]: 30%

2-(Furan-2-yl)-8-(β-D-glucopyranosyl)-5,7-dihydroxy-4H-chromen-4-one [Compound 21]
Log D7.4 (partition coefficient at pH 7.4) [1, 8]: −0.2 ± 0.1
Neuroprotective effect against H2O2-induced toxicity (MTT cell viability) [2]: able to rescue cells from oxidative damage caused by H2O2; also recorded: able to produce a significant improvement in cell viability
MTT reduction (% control) [3, 7]: 131.5 ± 11.0%

O=c1cc(-c2ccccc2)oc2c([C@@H]3O[C@H](CO)[C@@H](O)[C@H](O)[C@H]3O)c(O)cc(O)c12 [Compound 16, 8-(β-D-Glucopyranosyl)-5,7-dihydroxyflavone]
logD [1, 6]: 0.8 ± 0.3
Neuroprotective effect against H2O2-induced toxicity (MTT cell viability) [2]: absence of significant effects
MTT reduction (% control) [3, 7]: 142.0 ± 38.5%
inhibition at 100 µM [4]: 20%
BuChE inhibitory efficacy (percentage of inhibition) ([5]; 100 µM compound): n.i .

O=c1cc(-c2ccco2)oc2cc(O)cc(O)c12 [Compound 11, 2-(Furan-2-yl)-5,7-dihydroxy-4H-chromen-4-one]
logD [1, 6]: > 2.5
Neuroprotective effect against H2O2-induced toxicity (MTT cell viability) [2]: contrarily
MTT reduction (% control) [3, 7]: 129.7 ± 9.06%

O=c1cc(-c2ccccc2)oc2cc(O)cc(O)c12 [Compound 1, chrysin, reference compound]
logD ([1]; octan-1-ol/phosphate buffer pH 7.4, 25 °C, read-out: Log D7.4 (partition coefficient at pH 7.4)): 3.6 ± 0.4
Neuroprotective effect against H2O2-induced toxicity (MTT cell viability) [2]: absence of significant effects
MTT reduction (% control) [3, 7]: 96.2 ± 26.9%
inhibition at 100 µM [4]: 18%
Ki [5]: 32 ± 4 µM
Butyrylcholinesterase inhibition, ranking in words ([5]; 100 µM compound): the most active butyrylcholinesterase inhibitor
Mode of inhibition ([5]; BuChE, Lineweaver-Burk plot): Non-* co mp etit iv e in hi bit io n
inhibition at 100 µM [5]: 64%

CN(C)c1ccc(-c2cc(=O)c3c(O)cc(O)cc3o2)cc1 [Compound 10, 4′-Dimethylamino-5,7-dihydroxyflavone]
logD [1, 6]: 3.4 ± 0.2
Neuroprotective effect against H2O2-induced toxicity (MTT cell viability) [2]: not significantly active
MTT reduction (% control) [3, 7]: 191.5 ± 22.9%

O=c1ccoc2c([C@@H]3O[C@H](CO)[C@@H](O)[C@H](O)[C@H]3O)c(O)cc(O)c12 [Compound 22, 8-(β-D-Glucopyranosyl)-5,7-dihydroxy-4H-chromen-4-one]
logD [1, 6]: -2 ± 0.2
Neuroprotective effect against H2O2-induced toxicity (MTT cell viability) [2]: no significant differences
MTT reduction (% control) [3, 7]: 149.2 ± 21.6%
AChE inhibitory efficacy (percentage of inhibition) [4]: n.i .
inhibition at 100 µM [5]: 19%

O=c1ccoc2cc(O)cc(O)c12 [Compound 13, 5,7-dihydroxychromen-4-one, reference compound]
logD [1, 6]: 2.4 ± 0.1
Neuroprotective effect against H2O2-induced toxicity (MTT cell viability) [2]: no significant differences
MTT reduction (% control) [3, 7]: 71.2 ± 48.1%

O=c1cc(-c2ccncc2)oc2cc(O)cc(O)c12 [Compound 12, 5,7-Dihydroxy-2-(pyridin-4-yl)-4H-chromen-4-one]
Neuroprotective effect against H2O2-induced toxicity (MTT cell viability) [2]: contrarily
MTT reduction (% control) [3, 7]: 233.7 ± 15.7%

O=c1cc(-c2ccc(O)cc2)oc2c([C@@H]3O[C@H](CO)[C@@H](O)[C@H](O)[C@H]3O)c(O)cc(O)c12 [Compound 17, 8-(β-D-Glucopyranosyl)-5,7,4′-trihydroxyflavone]
logD ([1]; pH 7.4, Log D7.4 (partition coefficient at pH 7.4)): 0.1 ± 0.1
Neuroprotective effect against H2O2-induced toxicity (MTT cell viability) [2]: able to rescue cells from oxidative damage caused by H2O2; also recorded: able to fully recover cell viability
MTT reduction (% control) ([3]; human, 50 μM): 85.0 ± 38.5%

8-(β-D-Glucopyranosyl)-5,7-dihydroxy-4′-(pyrrolidin-1-yl)flavone [Compound 20]
Log D7.4 (partition coefficient at pH 7.4) [1, 8]: 1.8 ± 0.2
MTT reduction (% control) [3, 7]: 219.9 ± 16.9%

O=c1cc(C2CCC2)oc2cc(O)cc(O)c12 [Compound 5, 2-Cyclobutyl-5,7-dihydroxy-4H-chromen-4-one]
logD [1, 6]: > 2.5
Neuroprotective effect against H2O2-induced toxicity (MTT cell viability) [2]: the increase was not significant
MTT reduction (% control) [3, 7]: 184.6 ± 30.2%

O=c1cc(-c2ccc(N3CCCC3)cc2)oc2cc(O)cc(O)c12 [Compound 9, 5,7-Dihydroxy-4′-(pyrrolidin-1-yl)flavone]
Neuroprotective effect against H2O2-induced toxicity (MTT cell viability) [2]: able to produce statistically significant differences when compared to H2O2 controls
MTT reduction (% control) [3, 7]: 163.6% ± 72.6
inhibition at 100 µM [4]: 27%
inhibition at 100 µM [5]: 32%
